Data on 5 compounds can be found in patent publication US7923429B2, “Treatment for CD5+ B cell lymphoma” (3M Innovative Properties Company, priority 2003, dated 2011).

Test [1] relates to CLL cells. Nature of the test: Costimulatory molecule expression by activated CLL cells (flow cytometry). The test is classed as cell-based, human. Here is the method:
Blood samples: Heparinized blood (30-40 mL) was collected from consenting CLL patients (diagnosed by a persistent elevation of CD19^+CD5^+ IgM^lo lymphocytes (Rozman and Montserrat, New Engl. J. Med. 1995; 333:1052-1057)). All patients were untreated at the time of analysis. Protocols were approved by the appropriate Institutional Review Board.
Cell purification: CLL and T cells were isolated from fresh blood by negative selection (RosetteSep, StemCell Technologies, Vancouver, BC) as described by Gitelson et al. (Gitelson et al., Clin. Cancer Res. 2003; 99:1656-1665).
Activation of CLL cells: Purified CLL cells (1.5×10^6 cells/mL) were cultured in serum-free AIM-V medium plus 2-mercaptoethanol (2-ME, 5×10^−5 M) (Sigma Chemical Co.) in 6- or 24-well plates (Becton-Dickinson Labware, Franklin Lake, N.J.) for 3-4 days at 37° C. in 5% CO2. CLL cells were activated by adding the Negative Control compound (1 μg/mL), IRM1 (1 μg/mL), IL-2 (5000 U/mL), PDB (100 ng/mL), or bryostatin ([…]), as appropriate.
Flow cytometry: Cell staining was performed as described by Gitelson et al. (Gitelson et al., Clin. Cancer Res. 2003; 99:1656-1665).
CLL cells from the indicated number of patients were cultured in IRM1 (1 μg/mL) for 3-4 days, and then assayed for expression of the costimulatory molecules indicated on the x-axis (at an intensity greater than the first decade of log fluorescence) of FIG. 1A. The percentage of cells that expressed each costimulatory molecule and the mean fluorescence intensity (MFI) of expression were measured by flow cytometry. The “fold-increase” was then calculated from the ratio of these measurements to the percentage and MFI of control cells cultured without activating agents. […]
CLL cells were isolated and cultured alone or with IL-2 (5000 U/mL), IRM1 (1 μg/mL), or both IL-2 and IRM1 for 3-4 days. The expression of CD80, CD86, CD54, and CD83 was then determined by flow cytometry.
CD80, CD83, CD54, and CD86 expression were then determined by flow cytometry.
On the technique in general: In flow cytometry, cells or beads pass a laser one at a time.

Test [2] has as its system T cells from CLL patients. Description: Mixed lymphocyte response: T cell proliferation stimulated by activated, irradiated CLL cells. The format is cell-based, human. The following applies: CLL cells activated 3-4 days, MLR 5-6 days, alamar blue. An excerpt:
Mixed Lymphocyte Responses (MLRs): T cells were isolated from CLL patients and adjusted to 5×10^5 cells/mL in AIM-V medium. Activated CLL cells were washed at least 4 times to remove residual immunomodulators, irradiated (2500 cGy) and suspended at 5×10^5 cells/mL (or lower concentrations) in AIM-V. Responders and stimulators were then mixed in a 1:1 (vol:vol) ratio and cultured in 96-well round bottom plates (Becton Dickinson Labware, Franklin Lake, N.J.) without additional cytokines or serum. Proliferation was measured 4-6 days later using a colorimetric assay (Gitelson et al., Clin Cancer Res. 2003; 99:1656-1665; and Ahmed et al., J. Immunol. Methods. 1994; 170:211-224).
CLL cells were purified from individual patients and cultured alone or with IL-2, IRM1, IL-2 and IRM1, PDB, PDB and IL-2, PDB and IRM1, or PDB, IL-2, and IRM1. After 3-4 days, these cells were harvested, washed extensively, irradiated (2500 cGy) and used to stimulate allogenic or autologous T cells from CLL patients (obtained at the same time as the CLL cells and rested in culture until added to the Mixed Lymphocytic Response (MLR) assay) after 5-6 days of culture, alamar blue was added and proliferation was measured in an optical density calorimetric microplate reader at wavelengths of 540 (reduced state) and 595 (oxidized state). […]
For orientation: The colour change of resazurin is a common sign of viable cells or microbes.

For test [3], the system named is lymphomatous skin deposits associated with chronic lymphocytic leukemia. Nature of the test: Topical treatment of lymphomatous skin deposits in a CLL patient. The test is classed as in vivo, human. The following applies: topical IRM2; count at beginning 36×10^6 cells/mL. The text has this:
A person was diagnosed with Rai Stage 0 CLL on the basis of a persistent elevated count of circulating monoclonal CD19^+ CD5^+ IgM^lo lymphocytes, determined by flow cytometry. CD38 was expressed by 45% of circulating CLL cells. The white blood cell counts at the beginning and end of treatment with IRM2 were 36×10^6 cells/mL and 45×10^5 cells/mL, respectively. Other systemic chemotherapy, steroids, or radiation had not been administered previously.
Additionally, the patient reported having recurrent nodular, erythematous lesions on their hands and arms for approximately eight years. The lesions were usually removed by treatment with liquid nitrogen. At the time they were diagnosed with CLL, they had several such lesions over their upper back (FIG. 8A) and arms. One lesion was biopsied and found to contain a diffuse atypical lymphoid dermal infiltrate consisting of many small, round lymphocytes, without epidermotropism.
A 5% cream of IRM2 was applied to the affected area three times per week.
Administration of 5% IRM2 cream was increased to once per day.

The subject of test [4] is CLL cells. Nature of the test: Elimination of CLL cells by autologous T cells in co-culture. The following applies: alone or in combination with IL-2 and/or bryostatin; 1:1 CLL:T cells, 5 days. The test is classed as cell-based, human. Here is the method: CLL cells and T cells were isolated from a CLL patient, suspended at concentrations of 10^6 cells/mL and mixed in a 1:1 ratio. The cell mixtures were cultured alone, or in the presence of IL-2, IL-2 and IRM1, bryostatin, bryostatin and IL-2, bryostatin and IRM1, or bryostatin, IL-2, and IRM1. In FIG. 5A, after 5 days, the percentages of CD5^+ CD19^+ tumor cells (indicated by the numbers in the right upper quadrants of the dot-plots) and CD5^+ CD19^− T cells were determined by flow cytometry. In FIG. 5B, these percentages and the total numbers of viable cells (determined by manual counting in a hemocytometer) were used to calculate the remaining absolute numbers of CLL cells in the cultures.

With `CC(C)Cn1cnc2c(O)nc3ccccc3c21` [Negative Control, 4-hydroxy-1-isobutyl-1H-imidazo[4,5-c]quinoline, reference compound], the “effects on CLL cells” value in the test with CLL cells [1] (1 μg/mL, 3-4 days culture) is given as “did not have measurable effects”.
With `CCCC(=O)O[C@@H]1[C@@H](C)[C@@]2(O)[C@@H](C=C(CO)C[C@]3(O)C(=O)C(C)=C[C@@H]23)[C@@H]2C(C)(C)[C@]12OC(=O)CCC` [PDB, Phorbol dibutyrate, reference compound], in the test with CLL cells [1] (PDB alone, 100 ng/mL), the “CD54 and ICOS-L expression” value is on record as “not affected greatly”; the “expression of 4-1BBL and PDL-1” value is “increased”. Moreover, the “CLL cells expressing CD83” value in the test on CLL cells [1] (PDB alone, 100 ng/mL, 3-4 days) is around 90%. Also, the “number of CD80+ and CD86+ CLL cells” value in the test with CLL cells [1] (PDB alone, 100 ng/mL, CD86+ more than CD80+) was “increased”. Moreover, the “ability of activated CLL cells to stimulate T cell proliferation” value in test [2] was “weak stimulators”.
With `CC(C)Cn1cnc2c(N)nc3ccccc3c21` [IRM2, 1-(2-methylpropyl)-1H-imidazo[4,5-c]quinolin-4-amine], the “white blood cell count at end of treatment” value in test [3] is 45×10^5 cells/mL.
Take `CCOCc1nc2c(N)nc3c(c2n1CC(C)(C)O)CCCC3.O` [IRM1, 4-amino-2-(ethoxymethyl)-α,α-dimethyl-6,7,8,9-tetrahydro-1H-imidazo[4,5-c]quinoline-1-ethanol hydrate]: the “dependence of ICOS-L expression on signaling” value in the test with CLL cells [1] (IL-2 5000 U/mL, IRM1 1 μg/mL) is “relatively independent”. Further, the “expression of 4-1BBL and PDL-1” value in the test with CLL cells [1] (IL-2 5000 U/mL, IRM1 1 μg/mL, less than CD80, CD86, CD54) is “increased somewhat”. Besides, the “effect on CD80 compared with effect on CD86” value in the test on CLL cells [1] (IRM1 1 μg/mL) is recorded as “greater”. Moreover, the “potency as single agent in increasing CD80 and CD86 expression, relative to IL-2” value in the test with CLL cells [1] (IRM1 1 μg/mL vs IL-2 5000 U/mL, 3-4 days) is recorded as “more potent than IL-2”. Besides, in the test with CLL cells [1] (IRM1 1 μg/mL, 3-4 days), the “CD80, CD86, and CD54 expression” value is recorded as “especially strong effects”; the ICOS-L expression result was “little effect”; the “MFI of CD80, CD86, CD54, and CD83” value is recorded as “increased the expression of all four”; the “expression of CD83, 4-1BBL, and PDL-1” value is given as “increased”. In addition, the “patients whose CLL cells showed increased expression of CD54, CD80, and CD86” value in the test with CLL cells [1] (IRM1 1 μg/mL, 3-4 days, n=31) is listed as “all patients studied”. Further, in the test with CLL cells [1] (single agent, IL-2 5000 U/mL or IRM1 1 μg/mL, 3-4 days), the “percentage of CLL cells that expressed CD80 and CD86, and MFI of expression” value is reported as “increased”. Further, the “killing of CLL cells by autologous T cells in vitro” value with CLL cells [4] was “induced autologous T cells to kill CLL cells”.
poly (I:C) [reference compound]: the “costimulatory molecule expression (CD80, CD86) by CLL cells” value in the test on CLL cells [1] (100 μg/mL, 48 hours) is “rarely affected”.
